#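 Method: 48-hour compound exposure of cells in 96-well plates, five concentrations, linear interpolation of endpoints. GI50 marks 50% less growth. The concentration for full growth arrest is given as TGI.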
# What was measured:
# Test in all cases: inhibition of tumour cell growth, NCI panel, 48 h
# [1] = tested on: NCI-H460 lung
# [2] = tested on: OVCAR-5 ovarian
# [3] = tested on: HT29 colon
# [4] = tested on: HCC-2998 colon
# [5] = tested on: HCT-15 colon
# [6] = tested on: OVCAR-4 ovarian
# [7] = tested on: PC-3 prostate
# [8] = tested on: OVCAR-8 ovarian
# [9] = tested on: HL-60(TB) leukemia
# [10] = tested on: HS 578T breast
# [11] = tested on: SK-MEL-5 melanoma
# [12] = tested on: MOLT-4 leukemia
# [13] = tested on: BT-549 breast
# [14] = tested on: SF-295 CNS
# [15] = tested on: SNB-75 CNS
# [16] = tested on: 786-0 renal
# [17] = tested on: SK-OV-3 ovarian
# [18] = tested on: M14 melanoma
# [19] = tested on: KM12 colon
# [20] = tested on: UACC-257 melanoma
# [21] = tested on: SW-620 colon
# [22] = tested on: RXF 393 renal
# [23] = tested on: EKVX NSCLC
# [24] = tested on: RPMI-8226 leukemia
# [25] = tested on: HCT-116 colon
# [26] = tested on: SN12C renal
# [27] = tested on: OVCAR-3 ovarian
# [28] = tested on: SNB-19 CNS
# [29] = tested on: NCI/ADR-RES ovarian
# [30] = tested on: ACHN renal
# [31] = tested on: CAKI-1 renal
# [32] = tested on: HOP-92 NSCLC
# [33] = tested on: A549 NSCLC
# [34] = tested on: DU-145 prostate
# [35] = tested on: SF-268 CNS
# [36] = tested on: SK-MEL-28 melanoma
# [37] = tested on: COLO 205 colon
# [38] = tested on: TK-10 renal
# [39] = tested on: UO-31 renal
# [40] = tested on: SF-539 CNS
# [41] = tested on: NCI-H226 lung
# [42] = tested on: MDA-MB-435
# [43] = tested on: MCF7 breast
# [44] = tested on: LOX IMVI melanoma
# [45] = tested on: UACC-62 melanoma
# [46] = tested on: NCI-H522 lung
# [47] = tested on: HOP-62 NSCLC
# [48] = tested on: A498 renal
# [49] = tested on: MALME-3M melanoma
# [50] = tested on: SK-MEL-2 melanoma
# [51] = tested on: NCI-H23 lung
# [52] = tested on: U251 CNS
# [53] = tested on: T-47D breast
# [54] = tested on: IGROV1 ovarian
# [55] = tested on: K-562 leukemia
# [56] = tested on: MDA-MB-231 breast
# [57] = tested on: SR leukemia
# [58] = tested on: CCRF-CEM leukemia
smiles,measurement,setting,value
CC(C)(C)n1nc(C2CC2)cc1NC(=O)Nc1ccc(Cl)cc1,TGI,[1],> 100 µM
same,TGI,[2],> 100 µM
same,TGI,[3],> 100 µM
same,TGI,[4],> 100 µM
same,TGI,[5],> 100 µM
same,TGI,[6],> 100 µM
same,TGI,[7],> 100 µM
same,TGI,[8],> 100 µM
same,TGI,[9],> 100 µM
same,TGI,[10],> 100 µM
same,TGI,[11],> 100 µM
same,TGI,[12],> 100 µM
same,TGI,[13],> 100 µM
same,TGI,[14],> 100 µM
same,TGI,[15],> 100 µM
same,TGI,[16],> 100 µM
same,TGI,[17],> 100 µM
same,TGI,[18],> 100 µM
same,TGI,[19],> 100 µM
same,TGI,[20],> 100 µM
same,TGI,[21],> 100 µM
same,TGI,[22],> 100 µM
same,TGI,[23],> 100 µM
same,TGI,[24],> 100 µM
same,TGI,[25],> 100 µM
same,TGI,[26],> 100 µM
same,TGI,[27],> 100 µM
same,TGI,[28],> 100 µM
same,TGI,[29],> 100 µM
same,TGI,[30],> 100 µM
same,TGI,[31],> 100 µM
same,TGI,[32],> 100 µM
same,TGI,[33],> 100 µM
same,TGI,[34],> 100 µM
same,TGI,[35],> 100 µM
same,TGI,[36],> 100 µM
same,TGI,[37],> 100 µM
same,TGI,[38],> 100 µM
same,TGI,[39],> 100 µM
same,TGI,[40],> 100 µM
same,TGI,[41],> 100 µM
same,TGI,[42],> 100 µM
same,TGI,[43],> 100 µM
same,TGI,[44],> 100 µM
same,TGI,[45],> 100 µM
same,TGI,[46],> 100 µM
same,TGI,[47],> 100 µM
same,TGI,[48],> 100 µM
same,TGI,[49],> 100 µM
same,TGI,[50],> 100 µM
same,TGI,[51],> 100 µM
same,TGI,[52],> 100 µM
same,TGI,[53],> 100 µM
same,TGI,[54],> 100 µM
same,TGI,[55],> 100 µM
same,TGI,[56],> 100 µM
Clc1ccc(-c2c3nc(c(-c4ccc(Cl)cc4)c4ccc([nH]4)c(-c4ccc(Cl)cc4)c4nc(c(-c5ccc(Cl)cc5)c5ccc2[nH]5)C=C4)C=C3)cc1,TGI,[1],> 100 µM
same,TGI,[2],> 100 µM
same,TGI,[3],> 100 µM
same,TGI,[4],> 100 µM
same,TGI,[5],> 100 µM
same,TGI,[6],> 100 µM
same,TGI,[57],> 100 µM
same,TGI,[7],> 100 µM
same,TGI,[8],> 100 µM
same,TGI,[9],> 100 µM
same,TGI,[10],> 100 µM
same,TGI,[11],> 100 µM
same,TGI,[12],> 100 µM
same,TGI,[13],> 100 µM
same,TGI,[14],> 100 µM
same,TGI,[15],63.4 µM
same,TGI,[16],> 100 µM
same,TGI,[17],> 100 µM
same,TGI,[18],> 100 µM
same,TGI,[19],> 100 µM
same,TGI,[20],> 100 µM
same,TGI,[21],> 100 µM
same,TGI,[23],> 100 µM
same,TGI,[24],> 100 µM
same,TGI,[26],> 100 µM
same,TGI,[27],> 100 µM
same,TGI,[28],> 100 µM
same,TGI,[29],> 100 µM
same,TGI,[30],> 100 µM
same,TGI,[58],> 100 µM
same,TGI,[31],> 100 µM
same,TGI,[32],> 100 µM
same,TGI,[33],> 100 µM
same,TGI,[35],> 100 µM
same,TGI,[36],> 100 µM
same,TGI,[37],> 100 µM
same,TGI,[38],> 100 µM
same,TGI,[39],> 100 µM
same,TGI,[40],> 100 µM
same,TGI,[42],> 100 µM
same,TGI,[43],> 100 µM
same,TGI,[44],> 100 µM
same,TGI,[45],> 100 µM
same,TGI,[46],> 100 µM
same,TGI,[47],> 100 µM
same,TGI,[49],> 100 µM
same,TGI,[50],> 100 µM
same,TGI,[51],> 100 µM
same,TGI,[52],> 100 µM
same,TGI,[53],> 100 µM
same,TGI,[54],> 100 µM
same,TGI,[55],> 100 µM
same,TGI,[56],> 100 µM
COc1cc(-c2nn(-c3ccc(NC(=O)Nc4ccc(Cl)c(C(F)(F)F)c4)cc3)cc2-c2ccncc2)ccc1Cl,GI50,[1],1.71 µM
same,TGI,[1],3.62 µM
same,GI50,[2],1.94 µM
same,TGI,[2],5.68 µM
same,GI50,[4],1.64 µM
same,TGI,[4],3.1 µM
same,GI50,[5],1.44 µM
same,TGI,[5],3.22 µM
same,GI50,[6],2.34 µM
same,TGI,[6],8.45 µM
same,GI50,[7],1.67 µM
same,TGI,[7],> 100 µM
same,GI50,[8],2.03 µM
same,TGI,[8],7.83 µM
same,GI50,[10],1.91 µM
same,TGI,[10],4.96 µM
same,GI50,[11],1.56 µM
same,TGI,[11],2.94 µM
same,GI50,[13],2.01 µM
same,TGI,[13],4.57 µM
same,GI50,[15],1.28 µM
same,TGI,[15],4.03 µM
same,GI50,[16],1.8 µM
same,TGI,[16],4.27 µM
same,GI50,[17],2.53 µM
same,TGI,[17],6.43 µM
same,GI50,[18],1.74 µM
same,TGI,[18],3.63 µM
same,GI50,[19],1.36 µM
same,TGI,[19],2.87 µM
same,GI50,[20],1.64 µM
same,TGI,[20],3.69 µM
same,GI50,[21],1.82 µM
same,TGI,[21],3.58 µM
same,GI50,[22],1.54 µM
same,TGI,[22],4.41 µM
same,GI50,[23],1.1 µM
same,TGI,[23],3.95 µM
same,GI50,[25],1.14 µM
same,TGI,[25],2.53 µM
same,GI50,[26],2.6 µM
same,TGI,[26],8.82 µM
same,GI50,[27],1.57 µM
same,TGI,[27],3.59 µM
same,GI50,[28],2.53 µM
same,TGI,[28],8.13 µM
same,GI50,[29],2.12 µM
same,TGI,[29],7.85 µM
same,GI50,[30],2.02 µM
same,TGI,[30],9.71 µM
same,GI50,[58],1.42 µM
same,TGI,[58],7.01 µM
same,GI50,[31],1.29 µM
same,TGI,[31],3.54 µM
same,GI50,[32],1.82 µM
same,TGI,[32],5.85 µM
same,GI50,[33],2.66 µM
same,TGI,[33],11.4 µM
same,GI50,[34],2.47 µM
same,TGI,[34],7.52 µM
same,GI50,[35],1.93 µM
same,TGI,[35],5.01 µM
same,GI50,[36],1.88 µM
same,TGI,[36],3.9 µM
same,GI50,[37],1.67 µM
same,TGI,[37],3.29 µM
same,GI50,[38],3.06 µM
same,TGI,[38],13.2 µM
same,GI50,[39],1.44 µM
same,TGI,[39],3.13 µM
same,GI50,[40],1.76 µM
same,TGI,[40],3.98 µM
same,GI50,[41],2.14 µM
same,TGI,[41],7.22 µM
same,GI50,[42],1.6 µM
same,TGI,[42],3.54 µM
same,GI50,[43],2.51 µM
same,TGI,[43],8.28 µM
same,GI50,[44],1.43 µM
same,TGI,[44],2.78 µM
same,GI50,[45],1.77 µM
same,TGI,[45],3.75 µM
same,GI50,[47],1.9 µM
same,TGI,[47],3.93 µM
same,GI50,[48],1.41 µM
same,TGI,[48],3.54 µM
same,GI50,[51],1.98 µM
same,TGI,[51],5.79 µM
same,GI50,[52],1.21 µM
same,TGI,[52],2.62 µM
same,GI50,[53],2.66 µM
same,TGI,[53],7.37 µM
same,GI50,[54],2.06 µM
same,TGI,[54],6.07 µM
same,GI50,[55],1.59 µM
same,TGI,[55],5.58 µM
same,GI50,[56],1.76 µM
same,TGI,[56],3.82 µM

# Source: PubChem BioAssay (NCI)
